Tests used:
[1] = biological target: T1, μOR Q124^2.60A mutant (Homo sapiens, UniProt P35372, Q126A); assay type: cell-based
[2] = biological target: human μOR (β-arrestin-1, β-arrestin-2) (Homo sapiens, UniProt P35372); assay type: cell-based
[3] = biological target: T2, wild type human μOR (Homo sapiens, UniProt P35372); assay type: cell-based
[4] = biological target: human μOR (Homo sapiens, UniProt P35372); assay type: cell-based
[5] = biological target: human μOR (GoB) (Homo sapiens, UniProt P35372); assay type: cell-based; settings: read-out: potency at GoB
[6] = biological target: T3, μOR Y326^7.43F mutant (Homo sapiens, UniProt P35372, Y328F); assay type: cell-based
[7] = biological target: T2, wild type human μOR; assay type: cell-based; remark: listed apart in the source
[8] = biological target: T3, μOR Y326^7.43F mutant; assay type: cell-based; remark: listed apart in the source
[9] = biological target: T1, μOR Q124^2.60A mutant; assay type: cell-based; remark: listed apart in the source
[10] = biological target: human μOR (Gz) (Homo sapiens, UniProt P35372); assay type: cell-based; settings: read-out: potency at Gz
[11] = tested on: mice; settings: mouse, in vivo; cited from earlier work

Sequence of human μOR (P35372 whole entry): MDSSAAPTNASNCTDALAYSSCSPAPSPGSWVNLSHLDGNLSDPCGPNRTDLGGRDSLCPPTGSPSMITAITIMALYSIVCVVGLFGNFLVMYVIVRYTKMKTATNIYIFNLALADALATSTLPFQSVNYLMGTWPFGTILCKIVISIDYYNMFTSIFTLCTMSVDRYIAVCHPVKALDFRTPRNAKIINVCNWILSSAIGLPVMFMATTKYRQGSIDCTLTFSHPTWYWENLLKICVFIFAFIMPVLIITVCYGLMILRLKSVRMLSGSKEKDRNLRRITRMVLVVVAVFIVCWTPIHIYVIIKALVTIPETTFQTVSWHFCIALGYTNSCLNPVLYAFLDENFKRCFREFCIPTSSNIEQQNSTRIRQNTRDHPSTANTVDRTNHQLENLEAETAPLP
T2 sequence (P35372 whole entry): as above
T1 sequence (P35372 whole entry Q126A): as the sequence (P35372 whole entry) above, with Q126A counted along it
T3 sequence (P35372 whole entry Y328F): as the sequence (P35372 whole entry) above, with Y328F counted along it
Sequence of human μOR (Gz) (P35372 whole entry): as the sequence (P35372 whole entry) above
Sequence of human μOR (β-arrestin-1, β-arrestin-2) (P35372 whole entry): as above
Sequence of human μOR (GoB) (P35372 whole entry): as above

CC[C@@H]1CN2CC[C@]3(Nc4cccc(OC)c4C3=O)[C@@H]2C[C@@H]1/C(=C\OC)C(=O)OC [MP, Mitragynine pseudoindoxyl]
arrestin recruitment at the Q124A mutant [1]: completely abolishes
recruitment of β-arrestins [2]: no detectable recruitment
recruitment of β-arrestins [3]: very little detectable activity
efficacy at Gi/o/z subtypes compared to DAMGO [4]: partial agonist
potency spread across G protein subtypes [4]: ~ 3 fold
EC50 [5]: 3.2 nM
reduction of maximal Gi1 activation by the Y326F mutation [6]: 68%
potency in G protein dissociation assays [7]: as potent as DAMGO
reduction of maximal β-arrestin 2 recruitment by the Y326F mutation [8]: eliminated detectable
reduction of maximal Gi response by the Q124A mutation [9]: more than half
EC50 [10]: 0.9 nM
development of antinociceptive tolerance [11]: much more slowly
potency relative to morphine [11]: approximately ten-fold more potent
respiratory depression [11]: did not cause respiratory depression

Source: PMC11098091 (Nature chemical biology, 2022)
